In ChEMBL document CHEMBL1138402, “CCR5 receptor antagonists: discovery and SAR study of guanylhydrazone derivatives” (Bioorg Med Chem Lett, 2007):

The molecules below were run against C-C chemokine receptor type 5 (Homo sapiens, UniProt P51681) (assay: Displacement of [125I]MIP1-alpha from human CCR5/CD4 expressed in HEK293 cells).
Assay type: cell-based

Sequence of C-C chemokine receptor type 5 (P51681 whole entry): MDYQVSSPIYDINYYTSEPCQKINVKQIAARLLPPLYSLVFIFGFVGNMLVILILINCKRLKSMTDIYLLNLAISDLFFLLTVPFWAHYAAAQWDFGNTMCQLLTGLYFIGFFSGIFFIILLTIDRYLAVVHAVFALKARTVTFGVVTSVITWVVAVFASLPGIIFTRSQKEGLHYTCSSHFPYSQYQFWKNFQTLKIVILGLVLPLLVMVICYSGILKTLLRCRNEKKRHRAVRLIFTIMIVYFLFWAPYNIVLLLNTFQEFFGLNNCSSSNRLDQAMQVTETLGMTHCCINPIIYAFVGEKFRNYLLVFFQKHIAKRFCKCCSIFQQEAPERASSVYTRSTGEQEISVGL

IC50 [nM] | SMILES
600 | CN(C)Cc1cc(Br)ccc1OCc1ccc(Cl)cc1
1400 | CCN(CC)Cc1cc(Br)ccc1OCc1ccc(Cl)cc1
700 | COc1ccc(COc2ccc(Br)cc2/C=N/NC(=N)N)cc1
2900 | N=C(N)N/N=C/c1cc(Br)ccc1OCc1ccc(OCc2ccccc2)cc1
8700 | COc1ccc([N+](=O)[O-])cc1COc1ccc(Br)cc1/C=N/NC(=N)N
> 30000 | N=C(N)N/N=C/c1cccc(Cl)c1OCc1ccc(Cl)cc1
> 30000 | COc1cc(Br)cc(/C=N/NC(=N)N)c1OCc1ccc(Cl)cc1
1600 | COC(=O)c1cccc(COc2ccc(Br)cc2/C=N/NC(=N)N)c1
39000 | N=C(N)N/N=C/c1cc(Br)ccc1OCc1cccc(C(=O)O)c1
500 | Cc1ccc(COc2ccc(Br)cc2/C=N/NC(=N)N)cc1
1700 | Cc1cccc(COc2ccc(Br)cc2/C=N/NC(=N)N)c1
1100 | N=C(N)N/N=C/c1cc(Br)ccc1OCc1cccc2ccccc12
8500 | C/C(=N/NC(=N)N)c1cc(Cl)ccc1OCc1ccc(Cl)cc1
14000 | CN(/N=C/c1cc(Br)ccc1OCc1ccc(Cl)cc1)C1=NCCN1
600 | N=C(N)N/N=C/c1cc(Br)ccc1OCc1ccc(Br)cc1
480 | N#Cc1ccc(COc2ccc(Br)cc2/C=N/NC(=N)N)cc1
2000 | N#Cc1cccc(COc2ccc(Br)cc2/C=N/NC(=N)N)c1
1700 | N=C(N)N/N=C/c1cc(Br)ccc1OCc1cccc([N+](=O)[O-])c1
600 | N=C(N)N/N=C/c1cc(Cl)ccc1OCc1ccc(Cl)cc1
3400 | N=C(N)N/N=C/c1cc(F)ccc1OCc1ccc(Cl)cc1
3100 | N=C(N)N/N=C/c1cc(Cl)cc(Cl)c1OCc1ccc(Cl)cc1
5700 | N=C(N)N/N=C/c1cc(Br)ccc1OCc1ccccc1[N+](=O)[O-]
> 30000 | CC(C)(C)c1ccc(OCc2ccc(Cl)cc2)c(/C=N/NC(=N)N)c1
600 | N#Cc1ccc(OCc2ccc(Cl)cc2)c(/C=N/NC(=N)N)c1

IC50 [nM] | SMILES
> 30000 | N=C(N)N/N=C/c1ccc(Cl)cc1OCc1ccc(Cl)cc1
200 | C/C(=N\NC(=N)N)c1cc(Br)ccc1OCc1ccc(Cl)cc1
1300 | COC(=O)c1ccc(COc2ccc(Br)cc2/C=N/NC(=N)N)cc1
> 30000 | CCN(CC)c1ccc(OCc2ccc(Cl)cc2)c(/C=N/NC(=N)N)c1
93 | COc1cc(Br)cc(/C(C)=N/NC(=N)N)c1OCc1ccc(C#N)cc1
400 | CC/C(=N\NC(=N)N)c1cc(Br)cc(OC)c1OCc1ccc(Cl)cc1
> 30000 | CC(C)C/C(=N\NC(=N)N)c1cc(Cl)ccc1OCc1ccc(F)cc1
> 30000 | COC(=O)c1ccc(OCc2ccc(Cl)cc2)c(/C=N/NC(=N)N)c1
> 30000 | N=C(N)N/N=C/c1cc(N)ccc1OCc1ccc(Cl)cc1
1000 | Clc1ccc(COc2ccc(Br)cc2CN2CCOCC2)cc1
1700 | N=C(N)N/N=C/c1cc(Br)ccc1OCc1ccc(-c2ccccc2)cc1
3700 | N=C(N)N/N=C/c1cc(Br)ccc1OCc1ccc(F)cc1F
140 | C/C(=N\NC(=N)N)c1cc(Cl)ccc1OCc1ccc(Cl)cc1
4200 | CCCC/C(=N\NC(=N)N)c1cc(Cl)ccc1OCc1ccc(F)cc1
750 | Clc1ccc(COc2ccc(Br)cc2/C=N/NC2=NCCN2)cc1
900 | N=C(N)N/N=C/c1cc(Br)ccc1OCc1ccc([N+](=O)[O-])cc1
1200 | N=C(N)N/N=C/c1cc([N+](=O)[O-])ccc1OCc1ccc(Cl)cc1
> 30000 | N=C(N)N/N=C/c1cccc(F)c1OCc1ccc(Cl)cc1
1900 | N=C(N)N/N=C/c1cc(Br)ccc1OCc1ccccc1
800 | N=C(N)N/N=C/c1cc(Br)ccc1OCc1ccc(F)cc1
840 | N=C(N)N/N=C/c1cc(Br)ccc1OCc1ccc(Cl)cc1
2000 | Clc1ccc(COc2ccc(Br)cc2/C=N/NC2=NCCCN2)cc1
> 30000 | N=C(N)N/N=C/c1ccccc1OCc1ccc(Cl)cc1
